US20240336602A1 (Katholieke Universiteit Leuven, priority 2020, published 2024)
Where “and” joins values, the source holds several entries; their conditions need not be identical. Equal entries are not always repeated. Blank lines part the entries; values can stand above or below the compound they belong to.

Target: T1, mouse TRPM3a2 (mTRPM3) ion channel (Mus musculus, UniProt J9SQF3)
T1 construct: expressed in transfected cells; host or cells: flip-in HEK293
Experiment: TRPM3 ion channel driven Ca2+ uptake, Fluo-4 AM assay (PS-stimulated, overexpressing flip-in HEK293 cells)
Format: cell-based
Description: In order to monitor the inhibition of the mouse TRPM3a2 (mTRPM3) ion channel by the compounds of the invention, a cellular system making use of an mTRPM3alpha2 or hTRPM3 overexpressing cell line (flip-in HEK293) was used. The TRPM3 channel was stimulated/opened with Pregnenolone sulfate (PS) (50 μM) which results in Ca^2+ influx.
For mTRPM3, the intracellular Ca^2+ was measured with a Calcium responsive dye, Fluor-4 AM ester (Invitrogen). Cells were cultured until a confluence of 80-90%, washed with Versene (Invitrogen) and detached from the surface by a short incubation with 0.05% Trypsin (Invitrogen). The trypsination process was stopped by the addition of complete cell culture medium (DMEM, glutamax, 10% FCS, NEAA, Pen-Strep). Cells were collected and resuspended in Krebs buffer without Calcium at RT.
Prior the cell seeding (±2000 cells/well into a black, 384 well plate (Greiner)) the diluted compound was added in the assay plate, together with the PS dissolved in Krebs buffer containing Calcium. […] Directly after cell addition the plates were read on an Envision fluorescence reader (Perkin Elmer) by an Excitation of 485 nm and emission at 535 nm.
Channel inhibition was calculated compared to a non-PS stimulated control versus a condition stimulated with PS (50 μM) with vehicle. The ability of the compounds of the invention to inhibit this activity was determined as: Percentage inhibition=[1-((RFU determined for sample with test compound present—RFU determined for sample with positive control inhibitor) divided by (RFU determined in the presence of vehicle—RFU determined for sample with positive control inhibitor))]*100.

[1] = PS (50 μM) stimulated, cpds. 600-666
[2] = PS (50 μM) stimulated, cpds. 667-751
[3] = PS (50 μM) stimulated, cpds. 400-499
[4] = PS (50 μM) stimulated, cpds. 500-599
[5] = PS (50 μM) stimulated, cpd 001-199

T1 sequence (J9SQF3 1-1709 isoform J9SQF3-12): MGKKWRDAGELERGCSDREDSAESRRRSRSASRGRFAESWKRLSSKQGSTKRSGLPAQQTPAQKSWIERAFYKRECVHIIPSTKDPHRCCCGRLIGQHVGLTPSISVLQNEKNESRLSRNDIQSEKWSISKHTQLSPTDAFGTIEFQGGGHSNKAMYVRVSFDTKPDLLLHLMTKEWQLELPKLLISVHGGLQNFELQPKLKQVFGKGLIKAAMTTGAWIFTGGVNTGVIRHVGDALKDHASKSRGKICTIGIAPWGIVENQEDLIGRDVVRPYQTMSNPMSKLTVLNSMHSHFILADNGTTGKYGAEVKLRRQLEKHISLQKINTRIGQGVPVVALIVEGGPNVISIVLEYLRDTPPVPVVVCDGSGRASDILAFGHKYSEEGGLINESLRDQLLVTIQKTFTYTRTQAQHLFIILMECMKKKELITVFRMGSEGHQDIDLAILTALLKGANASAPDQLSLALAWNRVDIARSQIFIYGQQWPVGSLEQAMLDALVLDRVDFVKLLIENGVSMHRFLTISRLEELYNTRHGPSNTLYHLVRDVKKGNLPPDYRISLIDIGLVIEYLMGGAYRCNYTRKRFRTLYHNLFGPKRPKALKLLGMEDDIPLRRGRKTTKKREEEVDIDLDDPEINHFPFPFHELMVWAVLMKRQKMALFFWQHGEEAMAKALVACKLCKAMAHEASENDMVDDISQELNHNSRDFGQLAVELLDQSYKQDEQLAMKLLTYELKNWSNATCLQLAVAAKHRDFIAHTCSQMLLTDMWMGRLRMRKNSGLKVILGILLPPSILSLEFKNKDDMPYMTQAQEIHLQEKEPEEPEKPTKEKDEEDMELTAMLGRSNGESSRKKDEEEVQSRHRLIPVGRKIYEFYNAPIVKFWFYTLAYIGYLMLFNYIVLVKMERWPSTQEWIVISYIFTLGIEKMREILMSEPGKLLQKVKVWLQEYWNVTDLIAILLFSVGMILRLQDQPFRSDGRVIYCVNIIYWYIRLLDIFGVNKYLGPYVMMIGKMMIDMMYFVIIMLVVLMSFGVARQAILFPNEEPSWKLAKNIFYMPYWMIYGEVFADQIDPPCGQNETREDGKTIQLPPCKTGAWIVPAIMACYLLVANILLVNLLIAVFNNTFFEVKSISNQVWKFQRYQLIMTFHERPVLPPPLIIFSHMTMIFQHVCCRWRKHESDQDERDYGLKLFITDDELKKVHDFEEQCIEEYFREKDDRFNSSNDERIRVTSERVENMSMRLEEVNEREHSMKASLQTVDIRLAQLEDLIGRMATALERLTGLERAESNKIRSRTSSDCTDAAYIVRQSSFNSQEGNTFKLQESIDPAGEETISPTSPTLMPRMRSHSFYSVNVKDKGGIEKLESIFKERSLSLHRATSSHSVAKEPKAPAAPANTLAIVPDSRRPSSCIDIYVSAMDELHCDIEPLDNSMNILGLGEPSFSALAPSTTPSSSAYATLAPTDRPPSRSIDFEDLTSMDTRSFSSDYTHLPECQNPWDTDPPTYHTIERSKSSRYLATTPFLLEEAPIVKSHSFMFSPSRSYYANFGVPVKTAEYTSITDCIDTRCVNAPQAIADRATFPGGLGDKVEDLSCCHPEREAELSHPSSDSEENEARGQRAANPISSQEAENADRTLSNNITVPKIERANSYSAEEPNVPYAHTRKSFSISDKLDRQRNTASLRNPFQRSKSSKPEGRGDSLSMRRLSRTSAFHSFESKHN

SMILES: CNC(=O)C(CO)NC(=O)c1c(C)oc2ccc(OCc3ccccn3)cc12 (single isomer, unassigned) [601 - En 1]
IC50 [1]: ≤ 1 µM

SMILES: CNC(=O)C(CO)NC(=O)c1c(C)oc2ccc(OCc3ccccn3)cc12 (single isomer, unassigned) [601 - En 2]
IC50 [1]: ≤ 1 µM

SMILES: Cc1oc2ccc(OCc3cccnc3O)cc2c1C(=O)NC1CNCC1(F)F (single isomer, unassigned) [640 - En 1]
IC50 [1]: ≤ 1 µM

SMILES: NC(=O)c1oc2ccc(OCc3cccnc3C(F)(F)F)cc2c1C(=O)NC1CCNCC1(F)F (single isomer, unassigned) [657 - En 1, N3-(3,3-difluoropiperidin-4-yl)-5-((2-(trifluoromethyl)pyridin-3-yl)methoxy)benzofuran-2,3-dicarboxamide]
IC50 [1]: ≥ 20 µM

SMILES: Cc1oc2ccc(OCc3ccccn3)cc2c1C(=O)NC1(CO)CCCNC1=O (single isomer, unassigned) [719 - En 1]
IC50 [2]: ≤ 1 µM

SMILES: COc1ncccc1COc1ccc2oc(C)c(C(=O)NC(C)(CO)C(N)=O)c2c1 (single isomer, unassigned) [720 - En 1]
IC50 [2]: ≤ 1 µM

SMILES: Cc1ncc(COc2ccc3oc(C)c(C(=O)NC4(C(N)=O)CCOC4)c3c2)o1 (single isomer, unassigned) [725 - En 1]
IC50 [2]: ≤ 1 µM

SMILES: Cc1oc2ccc(OCc3c[nH]nc3C(F)(F)F)cc2c1C(=O)NC1(CO)CCCNC1=O (single isomer, unassigned) [731 - En 1]
IC50 [2]: ≤ 1 µM

SMILES: Cc1oc2ccc(OCc3ccnn3C)cc2c1C(=O)NC1(CO)CCCNC1=O (single isomer, unassigned) [732 - En 1]
IC50 [2]: ≤ 1 µM

SMILES: Cc1oc2ccc(OCc3cccnn3)cc2c1C(=O)NC1(CO)CCNC1=O (single isomer, unassigned) [734 - En 1]
IC50 [2]: ≤ 1 µM

SMILES: Cc1oc2ccc(OCc3cccnn3)cc2c1C(=O)NC1(CO)CCNC1=O (single isomer, unassigned) [734 - En 2]
IC50 [2]: 1 to 20 µM

SMILES: Cc1oc2ccc(OCc3ccc(F)cn3)cc2c1C(=O)NC1(CO)CCNC1=O (single isomer, unassigned) [735 - En 1]
IC50 [2]: ≤ 1 µM

SMILES: Cc1oc2ccc(OCc3cccnc3C(F)F)cc2c1C(=O)NC1(CO)CCNC1=O (single isomer, unassigned) [736 - En 1]
IC50 [2]: ≤ 1 µM

SMILES: Cc1oc2ccc(OCc3cccnc3C(F)F)cc2c1C(=O)NC1(CO)CCCNC1=O (single isomer, unassigned) [737 - En 1]
IC50 [2]: ≤ 1 µM

SMILES: Cc1oc2ccc(OCc3ccnn3CC(F)F)cc2c1C(=O)NC1(C(N)=O)CCOC1 (single isomer, unassigned) [740 - En 1]
IC50 [2]: ≤ 1 µM

SMILES: Cc1oc2ccc(OCc3ccnn3CC(F)F)cc2c1C(=O)NC1(C(N)=O)CCOC1 (single isomer, unassigned) [740 - En 2]
IC50 [2]: ≤ 1 µM

SMILES: Cc1oc2ccc(OCc3cccnc3O)cc2c1C(=O)NC1COCC1O (centres unmarked) [350 - En 1]
IC50 (PS (50 μM) stimulated Ca2+ influx, HEK293, cpds 300-399): ≤ 1 µM

SMILES: Cc1ncc(COc2ccc3oc(C)c(C(=O)N[C@@H](CO)c4nc5ccccc5[nH]4)c3c2)s1 [401 - En 1, (R)-N-(1-(1H-benzo[d]imidazol-2-yl)-2-hydroxyethyl)-2-methyl-5-((2-methylthiazol-5-yl)methoxy)benzofuran-3-carboxamide]
IC50 [3]: ≤ 1 µM

SMILES: Cc1ncc(COc2ccc3oc(C)c(C(=O)NC(C)C(N)=O)c3c2)s1 (centres unmarked) [434 - En 2]
IC50 [3]: ≤ 1 µM

SMILES: Cc1oc2ccc(OCc3ccccn3)cc2c1C(=O)NC(C)C(N)=O (centres unmarked) [435 - En 2]
IC50 [3]: ≤ 1 µM

SMILES: Cc1oc2ccc(OCc3ccccn3)cc2c1C(=O)NC(CO)C(N)=O (centres unmarked) [455 - En 2]
IC50 [3]: ≤ 1 µM

SMILES: Cc1ncsc1COc1cc(F)c2oc(C)c(C(=O)NC3(CO)CCOCC3)c2c1 [compound 122, 7-fluoro-N-(4-(hydroxymethyl)tetrahydro-2H-pyran-4-yl)-2-methyl-5-((4-methylthiazol-5-yl)-methoxy)benzofuran-3-carboxamide]
IC50 [5]: 1 to 20 µM

Results, then the compound that gave them:

IC50 [1]: ≤ 1 µM
SMILES: CNC(=O)C(CO)NC(=O)c1c(C)oc2ccc(OCc3scnc3C)cc12 (single isomer, unassigned) [600 - En 1]

IC50 [1]: ≤ 1 µM
SMILES: Cc1oc2ccc(OCc3ccnn3C)cc2c1C(=O)NC1COCC1O (single isomer, unassigned) [655 - En 1]

IC50 [1]: ≤ 1 µM
SMILES: Cc1oc2ccc(OCc3ccnn3C)cc2c1C(=O)NC1COCC1O (single isomer, unassigned) [655 - En 2]

IC50 [1]: 1 to 20 µM
SMILES: Cc1oc2ccc(OCc3ccnn3C)cc2c1C(=O)NC1COCC1O (single isomer, unassigned) [656 - En 1]

IC50 [1]: 1 to 20 µM
SMILES: Cc1oc2ccc(OCc3ccnn3C)cc2c1C(=O)NC1COCC1O (single isomer, unassigned) [656 - En 2]

IC50 [2]: 1 to 20 µM
SMILES: Cc1ncsc1COc1ccc2oc(C)c(C(=O)NC3(CO)CCNC3)c2c1 (single isomer, unassigned) [728 - En 1]

IC50 [2]: ≤ 1 µM
SMILES: Cc1ncsc1COc1ccc2oc(C)c(C(=O)NC3(CO)CCNC3)c2c1 (single isomer, unassigned) [728 - En 2]

IC50 [2]: ≤ 1 µM
SMILES: Cc1ncsc1COc1ccc2oc(C)c(C(=O)NC(Cn3cncn3)C(N)=O)c2c1 (single isomer, unassigned) [729 - En 1]

IC50 [2]: ≤ 1 µM
SMILES: Cc1ncsc1COc1ccc2oc(C)c(C(=O)NC(Cn3cncn3)C(N)=O)c2c1 (single isomer, unassigned) [729 - En 2]

IC50 [2]: ≤ 1 µM
SMILES: Cc1oc2ccc(OCc3ccnn3C)cc2c1C(=O)NC1(CO)CCNC1=O (single isomer, unassigned) [733 - En 1]

IC50 [3]: 1 to 20 µM
SMILES: Cc1ncsc1COc1ccc2oc(C)c(C(=O)NC3CCN(CCOCCO)C3=O)c2c1 (centres unmarked) [402 - En 1]

IC50 [3]: ≤ 1 µM
SMILES: Cc1ncsc1COc1ccc2oc(C)c(C(=O)NC(COC(F)F)C(N)=O)c2c1 (centres unmarked) [448 - En 1]

IC50 [3]: ≤ 1 µM
SMILES: Cc1ncsc1COc1ccc2oc(C)c(C(=O)NC(CCO)C(N)=O)c2c1 (centres unmarked) [469 - En 1]

IC50 [4]: ≤ 1 µM and 1 to 20 µM
SMILES: Cc1ncc(COc2ccc3oc(C)c(C(=O)NC4(CO)CCNC4=O)c3c2)o1 (centres unmarked) [515 - En 1]

IC50 [4]: ≤ 1 µM
SMILES: Cc1ncc(COc2ccc3oc(C)c(C(=O)NC4(CO)CCNC4=O)c3c2)s1 (centres unmarked) [517 - En 1]

IC50 [4]: ≤ 1 µM
SMILES: Cc1ncsc1COc1ccc2oc(C)c(C(=O)NCC(C(N)=O)N(C)C)c2c1 (centres unmarked) [575 - En 1]

IC50 [1]: 1 to 20 µM
SMILES: Cc1oc2ccc(OCc3nccn3C)cc2c1C(=O)NC1COCC1O (centres unmarked) [653 - En 1]

IC50 [1]: 1 to 20 µM
SMILES: Cc1oc2ccc(OCc3nccn3C)cc2c1C(=O)NC1COCC1O (centres unmarked) [654 - En 2]

IC50 [5]: ≤ 1 µM
SMILES: Cc1oc2ccc(OCc3nccs3)cc2c1C(=O)NC1CCNC1=O (centres unmarked) [compound 036, 2-methyl-N-(2-oxopyrrolidin-3-yl)-5-(thiazol-2-ylmethoxy)benzofuran-3-carboxamide]

IC50 [5]: ≤ 1 µM
SMILES: COc1ncccc1COc1ccc2oc(C)c(C(=O)NC3CCNC3=O)c2c1 (centres unmarked) [compound 046, 5-((2-methoxypyridin-3-yl)methoxy)-2-methyl-N-(2-oxopyrrolidin-3-yl)benzofuran-3-carboxamide]

IC50 [5]: 1 to 20 µM
SMILES: Cc1cc2oc(C)c(C(=O)NC3(CO)CCOCC3)c2cc1OCc1scnc1C [compound 185, N-(4-(hydroxymethyl)tetrahydro-2H-pyran-4-yl)-2,6-dimethyl-5-((4-methylthiazol-5-yl)methoxy)-benzofuran-3-carboxamide]

IC50 [5]: 1 to 20 µM
SMILES: Cc1ncsc1COc1cc(C)c2oc(C)c(C(=O)NC3(CO)CCOCC3)c2c1 [compound 186, N-(4-(hydroxymethyl)tetrahydro-2H-pyran-4-yl)-2,7-dimethyl-5-((4-methylthiazol-5-yl)methoxy)benzofuran-3-carboxamide]
